Measurements from BindingDB's records for doi:10.1016/s0960-894x(03)00330-5 (The University of Georgia, 2003).

Assays:
[1] = In vitro antiviral activity against HIV-1 Reverse transcriptase wild type
[2] = In vitro antiviral activity against HIV-1 Reverse transcriptase M184V mutant

Row | Compound | EC50 [1] [nM] | EC50 [2] [nM]
1 | Nc1nc(=O)n([C@@H]2C=C[C@H](CO)O2)cc1F [ACH-126443] | 180 | 140
2 | Nc1ccn([C@@H]2CS[C@H](CO)O2)c(=O)n1 [Epivir] | 42 | > 50000
3 | Cc1cn([C@H]2C=C[C@@H](CO)O2)c(=O)[nH]c1=O [2',3'-didehydro-3'-deoxythymidine] | 450 | 500
